According to patent publication US20250257055A1, “TERTIARY AMIDE DERIVATIVES SUBSTITUTED WITH 4-MEMBERED RING STRUCTURE” (Sumitomo Pharma Co., Ltd., priority 2024, published 2025):

What was measured:
[1] = tested on: G-401 xenograft; assay: Drug efficacy evaluation by oral administration using G-401 xenograft model mice; type: in vivo; details: for antitumor effect (in words): G-401 xenograft model, oral administration; for T/C: oral twice a day
Procedure: G-401 cells (ATCC) were intradermally transplanted into 4-7-week-old BALB/cAnNCrj-nu/nu mice (CAnN.Cg-Foxn1/CrlCrlj, Jackson Laboratory Japan) at 5×10^5 cells/mouse. After confirming the engraftment of G-401 cells 10-40 days after transplantation, the test compound suspended in a solvent such as 0.5% methylcellulose solution was orally administered twice a day at a dose of 1-100 mg/kg. The tumor volume was measured over time from the start of administration, and the effect of tumor volume reduction by administration of the test compound was evaluated. The tumor volume can be calculated from the following equation using the minor axis and major axis of the tumor measured with an electronic caliper (Mitutoyo).
A control administration group administered with only a solvent such as 0.5% methylcellulose solution and a test compound administration group were compared, and the antitumor effect was evaluated by calculating T/C from the following equation.

[2] = Pharmacokinetic study in mice; type: in vivo; details: for AUC / clearance / half-life / Vd / Cmax: female, BALB/c (BALB/cAnN CrlCrlj), mouse, plasma; for Vd: read-out: Vdss
In short: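 Female 7-week-old BALB/c mice were dosed 1 mg/kg intravenously (50% PEG, 0.01 mol/L HCl) or 10 mg/kg orally (0.5% methylcellulose). Plasma was sampled from 5 or 15 min up to 24 hr, and concentrations were quantified by LC-MS against an internal-standard calibration curve.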

[3] = biological target: recombinant p300 (Homo sapiens (Human), UniProt Q09472); assay: HAT activity inhibition experiment (SensoLyte HAT(p300) Assay Kit); type: biochemical; details: recombinant p300, histone H3 peptide, acetyl CoA
In short: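 Recombinant human p300 preincubated with compound 10 min at room temperature, then acetyl-CoA and histone H3 peptide added and reacted 30 min at 37 °C. After stop, developer added for 30 min at room temperature in the dark; fluorescence read at Ex 389/Em 513 nm.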

Chain of recombinant p300 (Q09472 whole entry): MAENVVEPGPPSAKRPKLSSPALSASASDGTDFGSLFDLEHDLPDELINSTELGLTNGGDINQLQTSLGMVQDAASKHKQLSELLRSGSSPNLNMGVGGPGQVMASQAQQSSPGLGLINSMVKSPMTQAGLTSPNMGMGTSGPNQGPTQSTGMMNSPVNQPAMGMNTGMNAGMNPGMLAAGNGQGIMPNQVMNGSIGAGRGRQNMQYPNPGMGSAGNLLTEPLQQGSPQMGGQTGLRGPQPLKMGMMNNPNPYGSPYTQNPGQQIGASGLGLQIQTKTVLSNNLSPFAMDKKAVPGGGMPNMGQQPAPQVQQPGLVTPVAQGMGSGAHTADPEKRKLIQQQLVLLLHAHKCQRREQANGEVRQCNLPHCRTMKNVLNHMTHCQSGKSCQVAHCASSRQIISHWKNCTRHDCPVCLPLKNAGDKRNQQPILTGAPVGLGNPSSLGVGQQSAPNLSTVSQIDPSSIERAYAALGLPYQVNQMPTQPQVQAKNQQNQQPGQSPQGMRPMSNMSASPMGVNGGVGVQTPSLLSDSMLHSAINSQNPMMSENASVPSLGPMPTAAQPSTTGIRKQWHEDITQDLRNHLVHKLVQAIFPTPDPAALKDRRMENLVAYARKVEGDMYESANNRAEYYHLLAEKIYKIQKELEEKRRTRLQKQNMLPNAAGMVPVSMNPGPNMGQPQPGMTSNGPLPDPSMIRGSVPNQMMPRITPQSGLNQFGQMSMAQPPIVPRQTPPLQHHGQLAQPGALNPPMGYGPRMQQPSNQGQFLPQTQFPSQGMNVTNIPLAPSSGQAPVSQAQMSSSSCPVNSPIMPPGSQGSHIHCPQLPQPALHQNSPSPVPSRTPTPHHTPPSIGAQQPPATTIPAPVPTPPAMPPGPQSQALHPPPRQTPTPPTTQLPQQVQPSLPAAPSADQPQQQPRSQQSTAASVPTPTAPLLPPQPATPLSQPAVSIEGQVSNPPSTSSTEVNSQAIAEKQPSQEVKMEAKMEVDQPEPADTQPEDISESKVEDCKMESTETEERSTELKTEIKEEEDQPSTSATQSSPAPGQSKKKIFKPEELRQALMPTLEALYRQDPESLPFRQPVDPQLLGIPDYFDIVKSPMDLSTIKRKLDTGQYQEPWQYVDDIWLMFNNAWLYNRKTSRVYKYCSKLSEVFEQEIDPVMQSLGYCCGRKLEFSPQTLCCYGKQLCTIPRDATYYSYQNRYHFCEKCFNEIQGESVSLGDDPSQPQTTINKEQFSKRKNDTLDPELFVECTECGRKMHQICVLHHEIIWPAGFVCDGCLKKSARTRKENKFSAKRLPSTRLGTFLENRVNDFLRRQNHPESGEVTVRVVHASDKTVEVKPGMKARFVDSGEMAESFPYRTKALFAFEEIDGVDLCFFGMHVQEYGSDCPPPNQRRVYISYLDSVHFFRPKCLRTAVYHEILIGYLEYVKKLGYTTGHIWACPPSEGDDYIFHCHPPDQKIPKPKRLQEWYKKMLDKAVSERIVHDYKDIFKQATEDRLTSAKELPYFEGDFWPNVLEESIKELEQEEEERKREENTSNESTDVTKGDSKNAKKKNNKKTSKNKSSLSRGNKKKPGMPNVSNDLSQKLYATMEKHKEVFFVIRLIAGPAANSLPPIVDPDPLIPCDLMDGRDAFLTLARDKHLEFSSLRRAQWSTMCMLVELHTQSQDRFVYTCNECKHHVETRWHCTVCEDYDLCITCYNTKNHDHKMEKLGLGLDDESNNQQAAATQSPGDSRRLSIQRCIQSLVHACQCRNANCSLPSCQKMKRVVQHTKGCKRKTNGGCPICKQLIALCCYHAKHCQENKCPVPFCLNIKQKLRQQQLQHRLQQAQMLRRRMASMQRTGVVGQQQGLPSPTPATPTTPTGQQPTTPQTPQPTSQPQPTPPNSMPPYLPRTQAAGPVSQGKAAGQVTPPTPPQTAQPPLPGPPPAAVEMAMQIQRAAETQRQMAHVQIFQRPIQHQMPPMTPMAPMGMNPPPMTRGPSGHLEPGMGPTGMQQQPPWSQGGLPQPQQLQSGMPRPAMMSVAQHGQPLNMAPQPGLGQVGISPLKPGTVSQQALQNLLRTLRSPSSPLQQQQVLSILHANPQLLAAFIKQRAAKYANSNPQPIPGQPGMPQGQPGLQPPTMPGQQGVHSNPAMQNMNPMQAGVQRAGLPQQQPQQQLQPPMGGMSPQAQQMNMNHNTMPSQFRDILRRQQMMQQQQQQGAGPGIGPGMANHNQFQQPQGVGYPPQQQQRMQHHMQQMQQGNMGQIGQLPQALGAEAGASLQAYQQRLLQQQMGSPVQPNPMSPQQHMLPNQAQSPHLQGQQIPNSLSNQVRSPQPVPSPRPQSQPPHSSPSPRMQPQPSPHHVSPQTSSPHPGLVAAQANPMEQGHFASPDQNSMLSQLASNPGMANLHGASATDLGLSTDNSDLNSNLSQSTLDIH

Compound | antitumor effect (in words) [1] | T/C ([1]; 10 mg/kg, 34 days) [%] | T/C ([1]; 30 mg/kg, 34 days) [%] | AUC ([2]; intravenous, 1 mg/kg) [ng·h/mL] | clearance ([2]; intravenous, 1 mg/kg) [mL/min/kg] | half-life ([2]; intravenous, 1 mg/kg) [h] | Vd ([2]; intravenous, 1 mg/kg) [L/kg] | AUC ([2]; oral, 10 mg/kg) [ng·h/mL] | Cmax ([2]; oral, 10 mg/kg) [ng/mL] | BA ([2]; oral, 10 mg/kg) [%] | IC50 [3] [nM] | T/C ([1]; 3 mg/kg, 21 days) [%] | T/C ([1]; 10 mg/kg, 21 days) [%] | T/C ([1]; 20 mg/kg, 21 days) [%] | T/C ([1]; 30 mg/kg, 21 days) [%]
O=C1N[C@]2(C[C@@H](F)c3cc(-c4cnn(C5CN(C6COC6)C5)c4)ccc32)C(=O)N1CC(=O)N(Cc1ccc(F)cn1)C1(C(F)(F)F)COC1 [Example 7, 2-[(1′S,3′R)-3′-fluoro-5′-{1-[1-(oxetan-3-yl)azetidin-3-yl]-1H-pyrazol-4-yl}-2,5-dioxo-2′,3′-dihydrospiro[imidazolidine-4,1′-inden]-1-yl]-N-[(5-fluoropyridin-2-yl)methyl]-N-[3-(trifluoromethyl)oxetan-3-yl]acetamide] | strong antitumor effects | 31 | 80 | 819 | 19.9 | 1.41 | 1.3 | 8240 | 6140 | 100.6 | 0.9 |  |  |  | 
CN1CC(N(Cc2ccc(F)cc2)C(=O)CN2C(=O)N[C@]3(C[C@@H](F)c4cc(-c5cnn(C)c5)ccc43)C2=O)(C(F)(F)F)C1 [Example 10, 2-[(1′S,3′R)-3′-fluoro-5′-(1-methyl-1H-pyrazol-4-yl)-2,5-dioxo-2′,3′-dihydrospiro[imidazolidine-4,1′-inden]-1-yl]-N-[(4-fluorophenyl)methyl]-N-[1-methyl-3-(trifluoromethyl)azetidin-3-yl]acetamide] | strong antitumor effects |  |  | 491 | 33.5 | 1.16 | 1.8 | 3480 | 3240 | 70.8 | 0.4 | 53 | 102 |  | 
CN1CC(N(Cc2ccc(F)cn2)C(=O)CN2C(=O)N[C@]3(C[C@@H](F)c4cc(-c5cnn(C)c5)ccc43)C2=O)(C(F)(F)F)C1 [Example 20, 2-[(1′S,3′R)-3′-fluoro-5′-(1-methyl-1H-pyrazol-4-yl)-2,5-dioxo-2′,3′-dihydrospiro[imidazolidine-4,1′-inden]-1-yl]-N-[(5-fluoropyridin-2-yl)methyl]-N-[1-methyl-3-(trifluoromethyl)azetidin-3-yl]acetamide] | strong antitumor effects |  |  | 528 | 31.1 | 1.34 | 1.6 | 1520 | 1340 | 28.8 | 1.7 |  |  | 80 | 89
O=C1N[C@]2(C[C@@H](F)c3cc(-c4cnn(C5CCN(C6COC6)CC5)c4)ccc32)C(=O)N1CC(=O)N(Cc1ccc(F)cn1)C1(C(F)(F)F)COC1 [Example 23, 2-[(1′S,3′R)-3′-fluoro-5′-{1-[1-(oxetan-3-yl)piperidin-4-yl]-1H-pyrazol-4-yl}-2,5-dioxo-2′,3′-dihydrospiro[imidazolidine-4,1′-inden]-1-yl]-N-[(5-fluoropyridin-2-yl)methyl]-N-[3-(trifluoromethyl)oxetan-3-yl]acetamide] | strong antitumor effects |  |  | 1690 | 9.8 | 4.1 | 1.8 | 8400 | 8140 | 49.7 | 9 |  |  | 81 | 
CN1CC(N(Cc2ccc(F)cn2)C(=O)CN2C(=O)N[C@]3(C[C@@H](F)c4cc(-c5cnn(C6COC6)c5)ccc43)C2=O)(C(F)(F)F)C1 [Example 24, 2-{(1′S,3′R)-3′-fluoro-5′-[1-(oxetan-3-yl)-1H-pyrazol-4-yl]-2,5-dioxo-2′,3′-dihydrospiro[imidazolidine-4,1′-inden]-1-yl}-N-[(5-fluoropyridin-2-yl)methyl]-N-[1-methyl-3-(trifluoromethyl)azetidin-3-yl]acetamide] |  |  |  | 313 | 53 | 1.15 | 2.1 | 1470 | 1470 | 47.0 | 9.8 |  |  |  | 
